Where a name gives a salt, the structure may show the parent alone.
These compounds were tested on Acinetobacter baumannii ATCC 17978 (assay: Antimicrobial susceptibility testing: 90% growth inhibitory concentration (IC90) determination). Conditions: 90% growth inhibitory concentration; Acinetobacter baumannii ATCC17978; Iso-Sensitest broth, OD 600 nm over 16h; read-out: ATCC17978 IC90.
Format: cell-based
How it was run: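 Compounds serially twofold diluted (e.g. 50 to 0.097 μM final) in Iso-Sensitest broth, inoculated at ~5×10^(5) CFU/ml, incubated at 35±2° C. OD600 read every 20 minutes over 16h. IC90 taken as concentration inhibiting 90% of growth during logarithmic phase.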

| Structure (SMILES) | IC90 |
| --- | --- |
| CCc1cc(Nc2nccn3c(-c4ccc(OC)c(F)c4F)cnc23)ccc1C(=O)NCCCCC(=O)NC[C@H]1O[C@H](O[C@@H]2[C@@H](O)[C@H](O[C@H]3O[C@H](CN)[C@@H](O)[C@H](O)[C@H]3O)[C@@H](N)C[C@H]2NC(=O)[C@@H](O)CCN)[C@H](O)[C@@H](N)[C@@H]1O [Example 454, trifluoroacetate] | 970 nM |
| CCc1cc(Nc2nccn3c(-c4ccc(OC)c(F)c4F)cnc23)ccc1C(=O)NCCCNC(=O)[C@@H](N)CCCNC(=N)N [Example 343, N-[3-[[(2S)-2-amino-5-carbamimidamidopentanoyl]amino]propyl]-4-[[3-(2,3-difluoro-4-methoxyphenyl)imidazo[1,2-a]pyrazin-8-yl]amino]-2-ethylbenzamide;2,2,2-trifluoroacetic acid] | 750 nM |
| CCc1cc(Nc2nccn3c(-c4ccc(OC)c(F)c4F)cnc23)ccc1C(=O)NCCCNC(=O)CC[C@H](NC(=O)[C@@H](N)CCCCN)C(=O)O [Example 403, N2-(L-lysyl)-N5-(3-(4-((3-(2,3-difluoro-4-methoxyphenyl)imidazo[1,2-a]pyrazin-8-yl)amino)-2-ethylbenzamido)propyl)-L-glutamine trihydrochloride] | 940 nM |

Same assay, conditions: Acinetobacter baumannii, ATCC17978, 16 h, 90% growth inhibitory concentration; Acinetobacter baumannii ATCC17978; Iso-Sensitest broth, OD 600 nm over 16h; read-out: ATCC17978 IC90

| Structure (SMILES) | IC90 |
| --- | --- |
| COc1ccc(-c2cnc3c(Nc4ccc(C(=O)NCC5CCNC5)c(C)c4)nccn23)c(F)c1F (centres unmarked) [Example 57, 4-[[3-(2,3-difluoro-4-methoxy-phenyl)imidazo[1,2-a]pyrazin-8-yl]amino]-2-methyl-N-(pyrrolidin-3-ylmethyl)benzamide] | 290 nM |
| CCc1cc(Nc2nccn3c(-c4ccc(Oc5ncccn5)c(F)c4F)cnc23)ccc1C(=O)NCCCNC(=O)C1CCNCC1 [Example 544, N-(3-(4-((3-(2,3-difluoro-4-(pyrimidin-2-yloxy)phenyl)imidazo[1,2-a]pyrazin-8-yl)amino)-2-ethylbenzamido)propyl)piper-idine-4-carboxamide formate] | 290 nM |
| CCc1cc(Nc2nccn3c(-c4ccc(Oc5ccccn5)c(F)c4F)cnc23)ccc1C(=O)NCCNC(=O)CCN [Example 421, N-[2-(3-aminopropanoylamino)ethyl]-4-[[3-[2,3-difluoro-4-(2-pyridyloxy)phenyl]imidazo [1,2-a]pyrazin-8-yl]amino]-2-ethyl-benzamide; formic acid] | 440 nM |
| COc1ccc(-c2cnc3c(Nc4ccc(C(=O)N5CCC(C(=O)NCC6CN(C)C6)CC5)c(C)c4)nccn23)cc1F [REF 114, 1-(4-((3-(3-fluoro-4-methoxyphenyl)imidazo [1,2-a]pyrazin-8-yl)amino)-2-methylbenzoyl)-N-((1-methylazetidin-3-yl)methyl)piperidine-4-carboxamide] | 470 nM |
| C#CCOc1ccc(-c2cnc3c(Nc4ccc(C(=O)N[C@H](C)CN)c(CC)c4)nccn23)c(F)c1F [Example 460, N-[(1R)-2-amino-1-methyl-ethyl]-4-[[3-(2,3-difluoro-4-prop-2-ynoxy-phenyl)imidazo[1,2-a]pyrazin-8-yl]amino]-2-ethyl-benzamide] | 480 nM |
| Cc1cc(Nc2nccn3c(-c4ccc(OC(F)F)cc4)cnc23)ccc1C(=O)N(C)CC1(O)CCNCC1 [Example 260, 4-[[3-[4-(difluoromethoxy)phenyl]im-idazo[1,2-a]pyrazin-8-yl]amino]-N-[(4-hydroxypiperidin-4-yl)methyl]-N,2-dimethylbenzamide;hydrochlo-ride] | 4300 nM |
| CCc1cc(Nc2nccn3c(-c4ccc(Oc5ccc(OCCCN)cn5)c(F)c4F)cnc23)ccc1C(=O)N(C)C [Example 510, 4-[[3-[4-[[5-(3-aminopropoxy)-2-pyridyl]oxy]-2,3-difluoro-phenyl]imidazo[1,2-a]pyrazin-8-yl]amino]-2-ethyl-N,N-dimethyl-benzamide; formic acid] | 860 nM |
| CCc1cc(Nc2nccn3c(-c4ccc(Oc5ccncn5)c(F)c4F)cnc23)ccc1C(=O)NCCNC(=O)[C@@H](N)CCNC(=N)N [Example 440, N-[2-[[(2S)-2-amino-4-guanidino-butanoyl]amino]ethyl]-4-[[3-(2,3-difluoro-4-pyrimidin-4-yloxy-phenyl)imidazo[1,2-a]pyrazin-8-yl]amino]-2-ethyl-benzamide; formic acid] | 520 nM |
